Counter-ions that a name gives are not always drawn. Like-named read-outs stand apart in the source and are kept apart here.
Key:
[1] = tested on: substance P-induced scratching; assay: Mouse substance P-induced scratching model, subcutaneous SDE; assay type: in vivo; conditions: for substance P-induced scratching bouts: SC, 75 mg/mL oily formulation at 10 mL/kg, 30-minute observation
Method: The time-course and antipruritic effects of SDE via subcutaneous (SC) injection were studied in the mouse substance P-induced scratching model to evaluate the effect of SDE's antipruritic effect. In this study, SDE was dissolved in an oily formulation, with a concentration at 75 mg/mL.
Substance P, the endogenous ligand for the neurokinin-1 (NK-1) receptor, is a significant mediator of pruritus. […] Intradermal injection of substance P elicits an itch sensation in human subjects, and an associated itch response in mice.
(§1) Compared to the placebo control group, SDE (administered SC at 10 mL/kg) was associated with significant reduction of substance P-induced scratching behaviors at 4 hours (18.8±11.8 bouts) and 12 hours (24.5±4.1 bouts) post treatment. […] However, SC administration of SDE would cause high concentration of nalbuphine in the circulation and induce serious adverse effects.

[2] = Ex vivo skin drug permeation and penetration, MedFlux-HT diffusion cell system; assay type: in vitro ADME, human
Method: The ten formulations listed in Table 7 were used to evaluate the penetration of drug into human skin using the MedFlux-HT™ diffusion cell system. In this study, human skins with about 500±50 μm thickness were fixed on the MedFlux-HT diffusion cell system. About 10 mg of test formulation was applied to the epidermal side of the human skin, and a continued flow of receiver fluid was place at the opposite side of the skin. Because SDE is rapidly converted into nalbuphine by the esterases in the biological environment, both nalbuphine and SDE concentration were measured to access the drug permeation status. The concentration of nalbuphine and SDE in receiver fluid indicated the amount of drug that had penetrated through the human skin.
Tissue levels of SDE and nalbuphine in the dermis and epidermis, and the amount of SDE and nalbuphine in the receiver fluids over 24 hours were determined and are shown in FIG. 1A and FIG. 1B. SDE and nalbuphine were both detected in receiver fluid, dermis, and epidermis. The cumulative amounts of SDE and nalbuphine in receiver fluid recovered at 24 hours were 89-1978 ng/cm^2 and 169-978 ng/cm^2, respectively.
These formulations were used to evaluate the penetration of drug into human skin using the MedFlux-HT™ diffusion cell system according to Example 8.

[3] = assay type: physicochemical
Method: Individual excipients were investigated to determine their compatibility with SDE (at 50° C. for 2 and 4 weeks) for potential use in a topical formulation.

[4] = Adverse signs and mortality after SC administration of SDE; assay type: in vivo, mouse; conditions: SC at 10 mL/kg
Method: as §1

[5] = tested on: substance P-induced scratching; assay: Mouse substance P-induced scratching model, topical application; assay type: in vivo; conditions: 30 mg/kg, SC, 0.5 hour post treatment
Method: Groups of 10 or 20 male ICR mice weighing 23±3 grams were used. One day before testing, hair was removed at the substance P injection sites. […] Substance P (250 nmol/site) was injected intradermally (ID) in a volume of 50 μL/site into the rostral portion of the back (the same region as test compound application). As reference, nalbuphine HCl was injected subcutaneously on the lower back region (different site as Substance P challenge). The scratching behavior was recorded for 30 minutes by visual observation immediately after substance P injection.
The time-course and antipruritic effects of the Ointment formulations via topical application were investigated in the mouse substance P-induced scratching model according to Example 11. On the testing day, the tested formulations (TA-1, TA-2, TA-3, and TA-4) were applied topically on the rostral portion of the back (2×2 cm region) at 4 hours prior to substance P challenge. 15 male ICR mice were used for each group. As reference, nalbuphine HCl was injected subcutaneously on the lower back region (different site as Substance P challenge). The scratching behavior was recorded for 30 minutes by visual observation immediately after substance P injection.

[6] = Whole blood concentration of nalbuphine after the scratching observation; assay type: in vivo; conditions: ICR, mouse, subcutaneous, 30 mg/kg, SC at 0.5 hour, read-out: effective systemic concentration of nalbuphine (whole blood)
Method: Immediately after the scratching observation of Example 11, whole blood was collected from each mouse via the vena cava, and the nalbuphine concentration in each sample was determined.
Immediately after the scratching observation of Example 14, whole blood was collected from each mouse via the vena cava, and the nalbuphine concentration in each sample was determined.

[7] = four ointment formulations of Table 13

SMILES: O=C(CCCCCCCCC(=O)Oc1ccc2c3c1O[C@H]1[C@@H](O)CC[C@@]4(O)[C@@H](C2)N(CC2CCC2)CC[C@]314)Oc1ccc2c3c1O[C@H]1[C@@H](O)CC[C@@]4(O)[C@@H](C2)N(CC2CCC2)CC[C@]314 [SDE, Sebacoyl Dinalbuphine Ester]
- suppressive effect on scratching responses ([1]; SC at 10 mL/kg, 24 hours): 45%
- attenuation of scratching responses ([1]; SC at 10 mL/kg, 48 hours): loss of activity
- substance P-induced scratching bouts ([1]; 4 hours post treatment): 18.8±11.8 bouts
- substance P-induced scratching bouts ([1]; 12 hours post treatment): 24.5±4.1 bouts
- concentration of SDE in receiver fluid versus concentration of nalbuphine [2, 7]: comparable
- concentrations of SDE in dermis and epidermis versus concentrations of nalbuphine [2, 7]: much greater
- concentration of SDE in receiver fluid versus concentration of nalbuphine ([2]; ten formulations of Table 7): comparable
- concentrations of SDE in dermis and epidermis versus concentrations of nalbuphine ([2]; ten formulations of Table 7): 10 fold
- SDE degradation ([3]; combination of BHT with Transcutol P compared to Transcutol P alone, 50° C.): reduce the degree of SDE degradation
- SDE purity (%) ([3]; in Castor oil, 50° C., 2 weeks): 80.20%
- SDE purity (%) ([3]; in Castor oil, 50° C., 4 weeks): 75.71%
- SDE purity (%) ([3]; in Castor oil, T = 0): 100.00%
- SDE purity (%) ([3]; in Diisopropyl adipate, 50° C., 2 weeks): 99.60%
- SDE purity (%) ([3]; in Diisopropyl adipate, 50° C., 4 weeks): 99.49%
- SDE purity (%) ([3]; in Diisopropyl adipate, T = 0): 100.00%
- SDE purity (%) ([3]; in Isopropyl myristate (IPM), 50° C., 2 weeks): 99.51%
- SDE purity (%) ([3]; in Isopropyl myristate (IPM), 50° C., 4 weeks): 85.75%
- SDE purity (%) ([3]; in Isopropyl myristate (IPM), T = 0): 100.00%
- SDE purity (%) ([3]; in Miglyol 810 (Caprylic/Capric triglyceride), 50° C., 2 weeks): 99.66%
- SDE purity (%) ([3]; in Miglyol 810 (Caprylic/Capric triglyceride), 50° C., 4 weeks): 99.69%
- SDE purity (%) ([3]; in Miglyol 810 (Caprylic/Capric triglyceride), T = 0): 100.00%
- SDE purity (%) ([3]; in PEG 400 (pH 4-5) + BHT, 50° C., 2 weeks): 96.38%
- SDE purity (%) ([3]; in PEG 400 (pH 4-5) + BHT, 50° C., 4 weeks): 93.24%
- SDE purity (%) ([3]; in PEG 400 (pH 4-5) + BHT, T = 0): 98.31%
- SDE purity (%) ([3]; in PEG 400 (pH 4-5), 50° C., 2 weeks): 94.01%
- SDE purity (%) ([3]; in PEG 400 (pH 4-5), 50° C., 4 weeks): 96.97%
- SDE purity (%) ([3]; in PEG 400 (pH 4-5), T = 0): 100.00%
- SDE purity (%) ([3]; in Super refined PEG 400 (pH 4-5), 50° C., 2 weeks): 93.17%
- SDE purity (%) ([3]; in Super refined PEG 400 (pH 4-5), 50° C., 4 weeks): 92.23%
- SDE purity (%) ([3]; in Super refined PEG 400 (pH 4-5), T = 0): 100.00%
- SDE purity (%) ([3]; in Transcutol P + BHT, 50° C., 2 weeks): 14.65%
- SDE purity (%) ([3]; in Transcutol P + BHT, 50° C., 4 weeks): 4.21%
- SDE purity (%) ([3]; in Transcutol P + BHT, T = 0): 96.90%
- SDE purity (%) ([3]; in Transcutol P, 50° C., 2 weeks): 5.69%
- SDE purity (%) ([3]; in Transcutol P, 50° C., 4 weeks): 1.50%
- SDE purity (%) ([3]; in Transcutol P, T = 0): 94.31%
- change of SDE purity ([3]; in deionized water (at both pH 4 and 5) and Transcutol P, 50° C. for 2 and 4 weeks): Significant reductions
- SDE purity (%) ([3]; in water (pH 4), 50° C., 2 weeks): 28.91%
- SDE purity (%) ([3]; in water (pH 4), 50° C., 4 weeks): 14.47%
- SDE purity (%) ([3]; in water (pH 4), T = 0): 96.61%
- SDE purity (%) ([3]; in water (pH 5), 50° C., 2 weeks): 28.74%
- SDE purity (%) ([3]; in water (pH 5), 50° C., 4 weeks): 5.43%
- SDE purity (%) ([3]; in water (pH 5), T = 0): 96.83%
- adverse signs observed [4]: signs of depression, tremor and hypothermia
- mortality rate ([4]; 24 hours): 7.7%
- mortality rate ([4]; 48 hours): 35.7%

SMILES: Oc1ccc2c3c1O[C@H]1[C@@H](O)CC[C@@]4(O)[C@@H](C2)N(CC2CCC2)CC[C@]314 [nalbuphine HCl]
- substance P-evoked scratching behaviors ([5]; versus respective control (Example 11)): significantly reduced
- substance P-evoked scratching behaviors ([5]; versus respective control (Example 14)): significantly reduced
- concentration at 0.5 h [6]: ~207 ng/mL
